The source of these data is ChEMBL document CHEMBL3763116, “Synthesis and evaluation of colletoic acid core derivatives” (Eur J Med Chem, 2016).

Test [1] addresses 11-beta-hydroxysteroid dehydrogenase 1 (Homo sapiens, UniProt P28845). As to the kind of experiment: Inhibition of 11beta-HSD1 (unknown origin) using cortisol as substrate assessed as NADPH formation by fluorescent plate reader analysis.
A further test concerns BJ. As to the kind of experiment: Cytotoxicity against human BJ cells after 72 hrs by Cell TitreGlo assay. The test is classed as cell-based.

11-beta-hydroxysteroid dehydrogenase 1, sequence (P28845 whole entry): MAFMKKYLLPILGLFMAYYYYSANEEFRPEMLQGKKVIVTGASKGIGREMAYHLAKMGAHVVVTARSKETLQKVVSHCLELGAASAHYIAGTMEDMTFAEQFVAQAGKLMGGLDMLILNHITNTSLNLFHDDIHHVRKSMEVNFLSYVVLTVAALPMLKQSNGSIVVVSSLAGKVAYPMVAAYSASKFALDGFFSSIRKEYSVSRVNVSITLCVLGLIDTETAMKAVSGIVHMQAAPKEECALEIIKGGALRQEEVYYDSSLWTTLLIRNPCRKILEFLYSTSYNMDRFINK

Usually IC50 stands for the concentration that gives 50% inhibition. By EC50 is commonly meant the concentration needed to bring the measured effect to its halfway point. Low values mean a more potent agent, high ones a less potent agent. In the case of `CCOC(=O)[C@H]1CC[C@@H](C(C)C)[C@]12C=CC(=O)CC2`, the IC50 in test [1] is above 1000 µM. The EC50 in the test with BJ is above 90 µM.
For `CC(C)C1=CC[C@H]2C(=O)O[C@@H]3CC(=O)CC[C@@]132`, in test [1], the IC50 was above 1000 µM. Further, the 50% effective concentration (EC50) in the test on BJ was above 90 µM.
As for `CC(C)[C@@H]1CC[C@@H]2CO[C@@H]3[C@H](O)[C@](C)(O)CC[C@]231`, the IC50 in test [1] was above 1000 µM. Besides, the EC50 with BJ is above 90 µM.
As to `CC(C)[C@@H]1CC[C@H](CO)[C@]12CC[C@@](C)(O)C[C@H]2O`, the IC50 in test [1] was above 1000 µM. The EC50 in the test with BJ is above 90 µM.
As to `C=C1CC[C@]2(C[C@@H]1OC(C)=O)[C@@H](C(=O)OCC)CC[C@H]2C(C)C`, in test [1], the IC50 was above 1000 µM. The molecule further registered an EC50 in the test on BJ above 90 µM.
On to `O=C1C=C[C@@]2(CC1)c1ccccc1C[C@@H]2C(=O)O`, for which the IC50 in test [1] is above 1000 µM. Besides, the EC50 in the test on BJ is above 90 µM.
Take `C[C@@]1(O)CC[C@]23c4ccccc4C[C@@H]2CO[C@@H]3[C@@H]1O`: the IC50 in test [1] is above 1000 µM. Also, in the test on BJ, the EC50 is above 90 µM.
With `CC(C)C1=CC[C@H](CO)[C@]12CC[C@](C)(O)[C@H]1O[C@H]12`, in test [1], the IC50 was above 1000 µM. This molecule also gave an EC50 with BJ above 90 µM.
Take `CC(C)C1=CC[C@H](CO)C12CCC(=O)CC2`: in test [1], the IC50 was above 1000 µM. For the same molecule, the EC50 in the test on BJ is above 90 µM.
For the molecule `CC(C)[C@@H]1CC[C@H](CO)[C@]12CC[C@@](C)(O)[C@H]1O[C@H]12`, the IC50 in test [1] is above 1000 µM. The molecule also displayed an EC50 in the test on BJ above 90 µM.
With `CC(C)C1=CC[C@H](CO)[C@]12CC[C@@](C)(O)[C@@H](O)C2`, the IC50 in test [1] is above 1000 µM. In the test with BJ, the EC50 was above 90 µM.
For `CC(C)[C@@H]1CC[C@H](CO)[C@]12CC[C@@](C)(O)[C@@H](O)C2`, in that order: above 1000 µM and above 90 µM.
With `C=C1C(=O)C[C@]2(C[C@@H]1OC(C)=O)[C@@H](C(=O)OCC)CC[C@H]2C(C)C`, in test [1], the IC50 is above 1000 µM. The EC50 in the test with BJ is above 90 µM.
Consider `CC(C)[C@@H]1CC[C@H](CO)[C@]12CC[C@](C)(O)[C@H]1O[C@H]12`, for which the IC50 in test [1] is above 1000 µM. In the test on BJ, this molecule had an EC50 above 90 µM.
For `CC1=CC[C@@]2(c3ccccc3C[C@@H]2C(=O)O)[C@H](O)[C@@H]1O`, in test [1], the IC50 was above 1000 µM. The EC50 with BJ is above 90 µM.
In the case of `CC(C)C1=CC(=O)[C@H](CO[Si](C)(C)C(C)(C)C)[C@@]12C=C[C@](C)(O)CC2`, in test [1], the IC50 was above 1000 µM. For the same molecule, the EC50 with BJ was above 90 µM.
`CC(C)[C@@H]1CC[C@@H]2CO[C@@H]3C[C@](C)(O)CC[C@]231`: the IC50 in test [1] is above 1000 µM. Moreover, the EC50 in the test on BJ was above 90 µM.
Regarding `CCOC(=O)[C@H]1CC[C@@H](C(C)C)[C@]12CCC(=O)[C@@H](OC(C)=O)C2`, in test [1], the IC50 is above 1000 µM. In addition, the EC50 in the test with BJ is above 90 µM.
As for `O=C1CC[C@@]2(c3ccccc3C[C@@H]2CO)[C@@H]2O[C@H]12`, the IC50 in test [1] was above 1000 µM. Also, in the test on BJ, the EC50 was above 90 µM.
For `CC(C)C1=CC[C@H](CO)[C@]12CCC(=O)[C@H]1O[C@H]12`, in that order: above 1000 µM and above 90 µM.
For `O=C1C=C[C@@]2(CC1)c1ccccc1C[C@@H]2CO`, the IC50 in test [1] was above 1000 µM. Further, the EC50 in the test on BJ is above 90 µM.
On to `CC(C)C1=CC[C@H](CO)[C@]12CC[C@@](C)(O)C[C@H]2O`, for which the IC50 in test [1] was above 1000 µM. The molecule further came in with an EC50 with BJ above 90 µM.
For `C[C@H]1CC[C@@]2(c3ccccc3C[C@@H]2C(=O)O)[C@H](O)[C@@H]1O`, the IC50 in test [1] was above 1000 µM. In addition, the EC50 in the test on BJ is above 90 µM.
Turning to `C=C1C=C[C@]2(CC1)[C@@H](C(=O)OCC)CC[C@H]2C(C)C`, in test [1], the IC50 was above 1000 µM. In the test with BJ, the EC50 was above 90 µM.
As for `CC(C)C1=CC[C@H](CO[Si](C)(C)C(C)(C)C)[C@]12CC[C@@]1(O[Si](C)(C)C(C)(C)C)O[C@H]1C2`, the IC50 in test [1] is above 1000 µM. Besides, in the test on BJ, the EC50 is above 90 µM.
In the case of `CC(C)C1=CC[C@H](CO)[C@]12CC[C@](C)(O)[C@@H](O)C2`, the IC50 in test [1] was above 1000 µM. The molecule also had an EC50 in the test with BJ above 90 µM.
